In the assay the target is T1, NIK (Homo sapiens, UniProt Q99558).
T1 construct: gene MAP3K14
Briefly: Kinase-Glo luminescence kinase assay with recombinant human active NIK, myelin basic protein and […] ATP; IC50 converted to Ki. The assay is classed as biochemical. (Kinase-Glo reads ATP consumption through a luciferase reaction.)

T1 sequence (Q99558 whole entry): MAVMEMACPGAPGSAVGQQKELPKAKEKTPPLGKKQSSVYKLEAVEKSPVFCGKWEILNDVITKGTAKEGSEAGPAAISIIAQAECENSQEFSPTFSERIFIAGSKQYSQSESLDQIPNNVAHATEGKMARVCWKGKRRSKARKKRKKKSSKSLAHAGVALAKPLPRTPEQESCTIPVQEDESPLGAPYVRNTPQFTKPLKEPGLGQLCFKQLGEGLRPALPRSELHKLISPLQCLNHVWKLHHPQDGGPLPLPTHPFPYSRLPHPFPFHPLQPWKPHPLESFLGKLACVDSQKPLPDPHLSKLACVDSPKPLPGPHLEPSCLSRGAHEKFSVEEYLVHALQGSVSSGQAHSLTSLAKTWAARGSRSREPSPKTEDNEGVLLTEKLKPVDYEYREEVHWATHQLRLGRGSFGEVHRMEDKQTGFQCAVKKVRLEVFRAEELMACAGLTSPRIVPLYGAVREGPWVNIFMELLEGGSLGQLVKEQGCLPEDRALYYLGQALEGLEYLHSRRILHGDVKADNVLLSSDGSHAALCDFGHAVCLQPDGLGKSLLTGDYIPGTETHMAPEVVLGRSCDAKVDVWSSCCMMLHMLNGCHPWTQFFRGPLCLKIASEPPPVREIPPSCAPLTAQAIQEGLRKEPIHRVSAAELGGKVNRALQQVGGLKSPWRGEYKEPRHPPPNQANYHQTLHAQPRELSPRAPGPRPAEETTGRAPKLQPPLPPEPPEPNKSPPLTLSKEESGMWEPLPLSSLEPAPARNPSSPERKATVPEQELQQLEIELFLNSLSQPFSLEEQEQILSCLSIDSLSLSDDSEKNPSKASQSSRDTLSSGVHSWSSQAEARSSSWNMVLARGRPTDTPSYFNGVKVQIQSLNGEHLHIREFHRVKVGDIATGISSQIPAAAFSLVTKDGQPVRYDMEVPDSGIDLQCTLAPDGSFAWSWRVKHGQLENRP

In general, Ki refers to the equilibrium dissociation constant of an inhibitor or competing ligand from its target. Consider `CC(C)(O)C#Cc1ccc2c(c1)N(c1ccnc(N)n1)CC2` [CW15337, 4-(1-(2-aminopyrimidin-4-yl)indolin-6-yl)-2-methylbut-3-yn-2-ol], for which the inhibition constant (Ki) worked out at 25 nM.

(Values after article PMC8167103, “Regulation of Bcl-XL by non-canonical NF-κB in the context of CD40-induced drug resistance in CLL” (Cell Death and Differentiation, 2021).)
